In patent US20230053688A1, “METHODS TO ALTER LATENCY IN EBV+ MALIGNANCIES” (Cornell University, priority 2020, published 2023):
Read-outs that look alike come from different tables or passages of the source.

Key:
Rael = assay: Cell viability, CellTiter-Glo; conditions: read-out: 48 Hour IC50
Experimental: (§1) Cell viability was determined using CellTiter-Glo (Promega) and the GloMax® Multi+ detection system (Promega).
(§2) Cell viability was determined using an ATP based luminescent assay (CellTiter-Glo, Promega) and the GloMax® Multi+ detection system (Promega). IC50 values were calculated using Prism 6 software.
(§3) To determine if induction of LMP1 and EBNA3 were linked to hypomethylating agent-induced cell death, cells were exposed to decitabine or 5-azacytadine over a range of doses and cell viability evaluated with the ATP-based Cell Titer-Glo® assay.

Mutu I = assay: Cell viability, CellTiter-Glo; conditions: read-out: 48 Hour IC50
Experimental: as §1, §2, §3

[1] = test system: LMP1 and EBNA3C proteins in BL cells; assay: Immunoblot for viral proteins in BL cells; type: cell-based, EBV; conditions: 48 hours
Experimental: Immunoblot was performed with the standard procedure using the following antibodies: β-actin (GeneTex), BZLF1 (Santa Cruz), EBNA1 (Santa Cruz), EBNA2 (AbCam), EBNA3C (gift from Benjamin Gewurz), GAPDH (GeneTex), and LMP1 (AbCam).
Since decitabine and 5-azacytadine were the top hits on the epigenetic screen, the effect of these agents on latency II/III transcript and protein expression was investigated as well as the dose-response in a panel of BL cell lines. BL cells were treated with decitabine or 5-azacytidine over a range of doses. Viral antigen expression was evaluated by qRT-PCR, immunoblot, and immunohistochemistry. […] This was associated with upregulation of LMP1 and EBNA3C proteins (FIG. 2B).

[2] = test system: EBNA2 and LMP1 in Mutu I, Kem I, and Rael cells; assay: Immunohistochemistry on cell blocks, statement across the three cell lines; type: cell-based, EBV; conditions: 5-Aza at 4 uM, 48 hours, compared with decitabine
Experimental: Cell blocks were generated from cell lines in suspension by fixation in 10% formalin. Immunohistochemistry on cell blocks and mouse tumors was performed with the following antibodies: EBNA2 (abcam #ab90543), LMP1 (Dako #M0897), BZLF1 (Santa Cruz #SC-53904), CD8 (Leica #PA0183), PD-1 (Dako #M3653), PD-L1 (Cell Marque #315M-98). The Halo® image analysis software program (Indica Labs) was used to quantify immunohistochemical stains.
Next it was determined the percentage of cells that convert to expressing latency […] antigens after treatment with decitabine or 5-azacytadine. To do this, EBV antigen expression at the single-cell level was evaluated by immunohistochemistry (IHC) from cell blocks. Cells were treated with 5-azacytidine, decitabine, or vehicle control. Cell blocks were then evaluated by IHC for LMP1 and EBNA2. The percentage of positive cells was quantified with HALO image analysis. […] 5-azacytidine induced a more modest expression of EBNA2 and LMP1 across the three cell lines (FIGS. 2E-F). Based on these observations, decitabine was further investigated as a potential agent to induce expression of immunogenic viral antigens in latency I tumors.

[3] = test system: LMP1 expression in Kem I cells; assay: microbe, parasite or virus in culture; type: cell-based, EBV; conditions: for fold induction at 1 µM / fold induction at 2.5 µM: human gammaherpesvirus 4, 48 h
[4] = test system: LMP1 and Cp transcripts in Kem I, Mutu I, and Rael cell lines; type: cell-based, EBV
BL cells = assay: Cell viability, CellTiter-Glo, statements for the BL cell panel
Experimental: as §1, §2, §3

Kem I = assay: Cell viability, CellTiter-Glo; conditions: 48 h, read-out: 48 Hour IC50
Experimental: as §1, §2, §3

[5] = Kem I cells, dose 2.5 uM, 48 hours, LMP1 transcript by in-well qRT-PCR, average of the two replicates
[6] = Kem I cells, dose 2.5 uM, 48 hours, LMP1 transcript by in-well qRT-PCR, screen replicate 1
[7] = Kem I cells, dose 2.5 uM, 48 hours, LMP1 transcript by in-well qRT-PCR, screen replicate 2
[8] = Kem I cells, 2.5 uM, 48 hours, average of replicates 1 and 2
[9] = Kem I cells, 2.5 uM, 48 hours, fold change in LMP1 transcript vs vehicle

Nc1ncn([C@@H]2O[C@H](CO)[C@@H](O)[C@H]2O)c(=O)n1 [5-azacytidine]
IC50 (Rael): 2.2 µM
IC50 (Mutu I): 4 µM
LMP1 and EBNA3C proteins (immunoblot) [1]: not associated with significant induction
expression of EBNA2 and LMP1 (IHC) [2]: more modest
fold induction at 1 µM ([3]; read-out: Average LMP1 Fold Increase, Kem I cells, 1 uM, 48 hours, average of replicates 1 and 2): 4.1
fold induction at 1 µM ([3]; read-out: Replicate 1-LMP1 Fold Increase, Kem I cells, 1 uM, 48 hours, fold change in LMP1 transcript vs vehicle): 5.77
fold induction at 1 µM ([3]; read-out: Replicate 2-LMP1 Fold Increase, Kem I cells, 1 uM, 48 hours, fold change in LMP1 transcript vs vehicle): 2.43
optimal dose for induction ([4]; BL cells): 1 to 4 µM
induction of LMP1 and Cp ([4]; at doses <1 μM, 48 hours): minimal
IC50 (BL cells): ≥ 2.2 µM
change in cell viability (BL cells; at the optimal dose for induction): minimal change
IC50 (Kem I): > 5 µM

COCC[n+]1c2c(n(Cc3cnccn3)c1C)C(=O)c1ccccc1C2=O.[Br-] [YM155 (Sepantronium Bromide)]
Average LMP1 Fold Increase [3, 5]: 0.00 fold
Replicate 1-LMP1 Fold Increase [3, 6]: 0.00 fold
Replicate 2-LMP1 Fold Increase [3, 7]: 0.00 fold

C[C@H](NC(=O)Cc1cc(F)cc(F)c1)C(=O)N[C@@H]1C(=O)N(C)c2ccccc2-c2ccccc21 [YO-01027]
Average LMP1 Fold Increase [3, 5]: 0.35 fold
Replicate 1-LMP1 Fold Increase [3, 6]: 0.44 fold
Replicate 2-LMP1 Fold Increase [3, 7]: 0.27 fold

Cc1cc(C)nc(NS(=O)(=O)c2ccc(NC(=S)NC(=O)COc3ccc(Br)cc3Cl)cc2)n1 [ZCL278]
Average LMP1 Fold Increase [3, 5]: 0.85 fold
Replicate 1-LMP1 Fold Increase [3, 6]: 1.26 fold
Replicate 2-LMP1 Fold Increase [3, 7]: 0.44 fold

COc1cc2ncnc(Nc3ccc(Cl)cc3F)c2cc1OC [ZM 306416]
Average LMP1 Fold Increase [3, 5]: 0.85 fold
Replicate 1-LMP1 Fold Increase [3, 6]: 0.70 fold
Replicate 2-LMP1 Fold Increase [3, 7]: 1.00 fold

COc1cc2c(Nc3ccc(NC(=O)c4ccccc4)cc3)ncnc2cc1OCCCN1CCOCC1 [ZM 447439]
Average LMP1 Fold Increase [3, 5]: 0.37 fold
Replicate 1-LMP1 Fold Increase [3, 6]: 0.34 fold
Replicate 2-LMP1 Fold Increase [3, 7]: 0.40 fold

O=c1ncccn1[C@@H]1O[C@H](CO)[C@@H](O)[C@H]1O [Zebularine]
fold induction at 2.5 µM ([3]; read-out: Average LMP1 Fold Increase, Kem I cells, dose 2.5 uM, 48 hours, LMP1 transcript by in-well qRT-PCR, average of the two replicates): 0.52
fold induction at 2.5 µM ([3]; read-out: Replicate 1-LMP1 Fold Increase, Kem I cells, dose 2.5 uM, 48 hours, LMP1 transcript by in-well qRT-PCR, screen replicate 1): 0.24
fold induction at 2.5 µM ([3]; read-out: Replicate 2-LMP1 Fold Increase, Kem I cells, dose 2.5 uM, 48 hours, LMP1 transcript by in-well qRT-PCR, screen replicate 2): 0.79

COc1nc(C)cnc1NS(=O)(=O)c1cccnc1-c1ccc(-c2nnco2)cc1 [Zibotentan (ZD4054)]
Average LMP1 Fold Increase [3, 5]: 0.77 fold
Replicate 1-LMP1 Fold Increase [3, 6]: 0.57 fold
Replicate 2-LMP1 Fold Increase [3, 7]: 0.97 fold

Cl.Cl.Cl.O[C@@H](COc1cccc2ncccc12)CN1CCN([C@@H]2c3ccccc3[C@@H]3[C@H](c4ccccc42)C3(F)F)CC1 [Zosuquidar (LY335979) 3HCl]
Average LMP1 Fold Increase [3, 5]: 0.79 fold
Replicate 1-LMP1 Fold Increase [3, 6]: 0.64 fold
Replicate 2-LMP1 Fold Increase [3, 7]: 0.94 fold

(−)-MK 801 Maleate
Average LMP1 Fold Increase [3, 8]: 0.88
Replicate 1-LMP1 Fold Increase [3, 9]: 0.94
Replicate 2-LMP1 Fold Increase [3, 9]: 0.81

BAM7
Average LMP1 Fold Increase [3, 8]: 0.93
Replicate 1-LMP1 Fold Increase [3, 9]: 0.51
Replicate 2-LMP1 Fold Increase [3, 9]: 1.35

CHIR-98014
Average LMP1 Fold Increase [3]: 0.67
Replicate 1-LMP1 Fold Increase [3]: 0.81
Replicate 2-LMP1 Fold Increase [3]: 0.54

HA14-1
Average LMP1 Fold Increase [3, 8]: 0.73
Replicate 1-LMP1 Fold Increase [3, 9]: 0.62
Replicate 2-LMP1 Fold Increase [3, 9]: 0.83

I-BET151 (GSK1210151A)
Average LMP1 Fold Increase [3, 8]: 1.39
Replicate 1-LMP1 Fold Increase [3, 9]: 1.41
Replicate 2-LMP1 Fold Increase [3, 9]: 1.38

Ifenprodil Tartrate
Average LMP1 Fold Increase [3, 8]: 0.96
Replicate 1-LMP1 Fold Increase [3, 9]: 0.58
Replicate 2-LMP1 Fold Increase [3, 9]: 1.35

KX2-391
Average LMP1 Fold Increase [3, 8]: 1.63
Replicate 1-LMP1 Fold Increase [3, 9]: 2.01
Replicate 2-LMP1 Fold Increase [3, 9]: 1.25

Maraviroc
Average LMP1 Fold Increase [3, 8]: 1.08
Replicate 1-LMP1 Fold Increase [3, 9]: 0.44
Replicate 2-LMP1 Fold Increase [3, 9]: 1.72

OG-L002
Average LMP1 Fold Increase [3, 8]: 1.15
Replicate 1-LMP1 Fold Increase [3, 9]: 1.03
Replicate 2-LMP1 Fold Increase [3, 9]: 1.27

Pifithrin-μ
Average LMP1 Fold Increase [3, 8]: 0.78
Replicate 1-LMP1 Fold Increase [3, 9]: 0.40
Replicate 2-LMP1 Fold Increase [3, 9]: 1.17

S3I-201
Average LMP1 Fold Increase [3, 8]: 0.65
Replicate 1-LMP1 Fold Increase [3, 9]: 0.63
Replicate 2-LMP1 Fold Increase [3, 9]: 0.67

SN-38
Average LMP1 Fold Increase [3, 8]: 1.10
Replicate 1-LMP1 Fold Increase [3, 9]: 0.95
Replicate 2-LMP1 Fold Increase [3, 9]: 1.26

SNS-314 Mesylate
Average LMP1 Fold Increase [3, 8]: 0.51
Replicate 1-LMP1 Fold Increase [3, 9]: 0.71
Replicate 2-LMP1 Fold Increase [3, 9]: 0.32

VU 0357121
Average LMP1 Fold Increase [3, 5]: 0.48 fold
Replicate 1-LMP1 Fold Increase [3, 6]: 0.51 fold
Replicate 2-LMP1 Fold Increase [3, 7]: 0.46 fold

VU 0364439
Average LMP1 Fold Increase [3, 5]: 0.90 fold
Replicate 1-LMP1 Fold Increase [3, 6]: 1.34 fold
Replicate 2-LMP1 Fold Increase [3, 7]: 0.45 fold

VU 0364770
Average LMP1 Fold Increase [3, 5]: 1.03 fold
Replicate 1-LMP1 Fold Increase [3, 6]: 0.51 fold
Replicate 2-LMP1 Fold Increase [3, 7]: 1.55 fold
